Results taken from patent US12151000B2, “Tolerogenic artificial antigen-presenting cells” (THE JOHNS HOPKINS UNIVERSITY, priority 2019, dated 2024).

Key:
[1] = tested on: human PBMCs (TReg cells, CD8^+ and CD4^+ effector T cells); test: Human PBMC STAT5 phosphorylation in T cell subsets; assay type: cell-based; conditions: human PBMCs from healthy donor whole blood
Method: Human PBMC STAT5 phosphorylation studies. Human PBMCs were isolated from whole blood of healthy donors via Ficoll gradient following manufacturer protocols and then incubated with ACK lysis buffer for removal of red blood cells. Approximately 1×10^6 human PBMCs were plated in each well of a 96-well plate and re-suspended in RPMI complete medium containing serial dilutions of the indicated treatments. Cytokine/antibody complexes were formed by incubating a 1:1 molar ratio of F5111 antibody to hIL-2 for 1 hour at 37° C. Cells were stimulated for 20 minutes at 37° C. and immediately fixed by addition of 1X Fix/Perm Buffer (BD Biosciences) and 50 minute incubation at 4° C. Permeabilization of cells was achieved by resuspension in Perm Buffer III (BD Biosciences) overnight at −20° C. […] Cells were then washed twice in FACS buffer and MFI was determined on a CytoFLEX flow cytometer (Beckman-Coulter). Dose-response curves were fitted to a logistic model and half-maximal effective concentrations (EC50s) were calculated using GraphPad Prism data analysis software after subtraction of the mean fluorescence intensity (MFI) of unstimulated cells and normalization to the maximum signal intensity. […]

IL-2Rα^− YT-1 cells = test: YT-1 cell STAT5 phosphorylation, IL-2Rα− cells; assay type: cell-based, human; conditions: flow cytometry, 20 minutes stimulation
Method: (§1) YT-1 cell STAT5 phosphorylation studies. Approximately 2×10^5 IL-2Rα^− YT-1 or IL-2Rα^+ YT-1 cells were plated in each well of a 96-well plate and re-suspended in RPMI complete medium containing serial dilutions of the indicated treatments. Cytokine/antibody complexes were formed by incubating a 1:1 molar ratio of F5111 antibody to hIL-2 for 1 hour at 37° C. Cells were stimulated for 20 minutes at 37° C. and immediately fixed by addition of formaldehyde to 1.5% and 10 minute incubation at room temperature. Permeabilization of cells was achieved by resuspension in ice-cold 100% methanol for 30 minutes at 4° C. Fixed and permeabilized cells were washed twice with FACS buffer (phosphate-buffered saline [PBS] pH 7.2 containing 0.1% BSA [Thermo Fisher Scientific]) and incubated with Alexa Fluor® 647-conjugated anti-STAT5 pY694 (BD Biosciences) diluted in FACS buffer for 2 hours at room temperature. Cells were then washed twice in FACS buffer and mean fluorescence intensity (MFI) was determined on a CytoFLEX flow cytometer (Beckman-Coulter). Dose-response curves were fitted to a logistic model and half-maximal effective concentrations (EC50s) were calculated using GraphPad Prism data analysis software after subtraction of the mean fluorescence intensity (MFI) of unstimulated cells and normalization to the maximum signal intensity.
(§2) A cell signaling assay was performed on YT-1 human NK cells with or without IL-2Rα.

IL-2Rα^+ YT-1 cells = test: YT-1 cell STAT5 phosphorylation, IL-2Rα+ cells; assay type: cell-based, human; conditions: for selective activation of IL-2Rα^+ TReg-like cells over IL-2Rα^− TEff-like cells (bias): YT-1 cells with or without IL-2Rα; for STAT5 activation on IL-2Rα^+ YT-1 cells: flow cytometry, 20 minutes stimulation
Method: as §1, §2

[2] = tested on: CD4^+ T cells from B6 mice; test: In vitro FOXP3+ cell expansion in B6 CD4+ T cells; assay type: cell-based, mouse; conditions: 3 days
Method: F5111 IC LN35-loaded microparticles or free F5111 IC LN35 (at a dose equivalent to the particle loading dose) were incubated with CD4+ cells from B6 mice for 3 days, and cells were analyzed for FOXP3 expression via flow cytometry.
To determine whether F5111 IC-encapsulated MPs could induce in vitro TReg cell expansion, CD4^+ T cells were isolated from the spleens of B6 mice and incubated with unconjugated F5111 IC or F5111 IC-loaded PLGA MPs for 3 days. Cells were then stained for CD4, CD25, and FOXP3, and analyzed using flow cytometry.

IL-2Rβ = target: T1, IL-2Rβ (Homo sapiens, UniProt P14784); test: Bio-layer interferometry binding to immobilized IL-2Rβ
T1 construct: the extracellular domains of the hIL-2Rα (residues 1-214) and hIL-2Rβ (residues 1-214) receptor subunits; hexahistidine (C); made in house; host or cells: HEK 293F
T1 sequence (P14784 27-240): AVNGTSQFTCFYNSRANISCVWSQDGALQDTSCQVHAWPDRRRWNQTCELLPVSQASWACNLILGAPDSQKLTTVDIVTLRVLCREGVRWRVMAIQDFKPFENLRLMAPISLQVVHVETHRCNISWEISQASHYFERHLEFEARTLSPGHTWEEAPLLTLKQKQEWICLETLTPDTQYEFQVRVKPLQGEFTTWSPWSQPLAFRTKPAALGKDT
Method: (§3) Bio-layer interferometry binding studies. […] Less than 5 signal units (nm) of receptor was immobilized to minimize mass transfer effects. […] An irrelevant protein was included in a reference well to subtract non-specific binding. Surface regeneration for all interactions was conducted using a 15 second exposure to 0.1 M glycine pH 3.0. Experiments were carried out in PBSA (phosphate-buffered saline, pH 7.3 plus 0.1% bovine serum albumin (BSA, Thermo Fisher Scientific)) at 25° C. Data was visualized and processed using the Octet® Data Analysis software version 7.1 (Molecular Devices). Equilibrium titration curve fitting and KD value determination was implemented using GraphPad Prism, assuming all binding interactions to be first order. Experiments were reproduced two times with similar results.
(§4) The binding affinities were also evaluated using bio-layer interferometry on an OCTET® instrument with biotinylated hIL-2 immobilized on a streptavidin-coated tip (FIG. 6B). […] Bio-layer interferometry based binding studies were also conducted to assess the interaction between F5111 IC LN15 and the IL-2Rα and IL-2Rβ receptor chains, to ensure that the single-chain antibody/cytokine fusion was biased toward engagement of IL-2Rα (which is highly expressed on TReg cells but not effector cells) compared with IL-2Rβ.
(§5) Additionally, binding interactions between F5111 IC LN25 and LN35 with the human IL-2Rα (hIL-2Rα) and hIL-2Rβ subunits were measured using bio-layer interferometry on an Octet® instrument by immobilizing biotinylated hIL-2Rα and IL-2Rβ on streptavidin-coated tips.

[3] = tested on: CD4+ T cells from C57BL/6 mice; test: pSTAT5 expression in C57BL/6 CD4+ T cells; assay type: cell-based, mouse
Method: FIG. 22 is a graph showing the results of B6 CD4+ cells stimulation with titrated encapsulated particle doses or equivalent free doses of F5111 for different lengths of time, and the analysis of pSTAT5 expression using flow cytometry. A dose titration for free and MP-loaded F5111 IC LN35 was observed, with maximum pSTAT5 expression achieved after 1 hour of stimulation.
To evaluate the functionality of F5111 IC-loaded particles, mouse CD4+ T cells were stimulated with F5111 IC-loaded microparticles to identify an optimal stimulation time for maximum pSTAT5 expression, and pSTAT5 expression was compared to that of cells stimulated with free F5111 IC. CD4+ T cells were isolated from C57BL/6 mice and incubated with various doses of F5111 IC-loaded microparticles or equivalent doses of free F5111 IC for 20, 40, 60, or 120 minutes.

human IL-2 (hIL-2) = target: T2, human IL-2 (hIL-2) (Homo sapiens, UniProt P60568); test: Yeast surface binding study, yeast-displayed hIL-2, flow cytometry; conditions: yeast surface-displayed hIL-2
T2 construct: hIL-2 (residues 1-133) or mIL-2 (residues 1-149) were cloned into the pCT302 vector; made in house; host or cells: yeast (surface display)
T2 sequence (P60568 21-153): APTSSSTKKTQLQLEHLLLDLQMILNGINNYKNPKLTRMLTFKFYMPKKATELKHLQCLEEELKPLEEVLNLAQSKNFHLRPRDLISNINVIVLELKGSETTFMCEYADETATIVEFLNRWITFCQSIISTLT
Method: Yeast surface binding studies. For antibody binding studies on yeast, hIL-2 (residues 1-133) or mIL-2 (residues 1-149) were cloned into the pCT302 vector and presented on the surface of yeast, as described previously (Boder et al., Nat. Biotechnol., 15(6): 553-557 (1997)). […] Cells were then washed and stained with a 1:200 dilution of Alexa647-conjugated streptavidin (Thermo) in PBSA for 15 minutes at 4° C. After a final wash, cells were analyzed for antibody binding using a CytoFLEX flow cytometer (Beckman Coulter). Background-subtracted and normalized binding curves were fitted to a first-order binding model and equilibrium dissociation constant (KD) values were determined using GraphPad Prism. Studies were performed three times with similar results.
A rapid small-scale HEK 293F cell transfection assay was developed to optimize immunocytokine expression. Cells were transfected in 6-well plates with predefined ratios of heavy chain (HC) and IL-2-fused light chain (LC) plasmid DNA. After a 3-day incubation, secreted protein was captured from the supernatant with protein G resin, eluted with 0.1 M glycine pH 2.0, and analyzed via SDS-PAGE. […]
(§6) The binding affinities were also evaluated using bio-layer interferometry on an OCTET® instrument with biotinylated hIL-2 immobilized on a streptavidin-coated tip (FIG. 6B). […]

immobilized hIL-2 = target: T3, immobilized hIL-2 (Homo sapiens, UniProt P60568); test: Bio-layer interferometry binding to immobilized hIL-2; conditions: biotinylated hIL-2 immobilized
T3 construct: The full hIL-2 cytokine (residues 1-133) and the extracellular domains; hexahistidine (C); made in house; host or cells: HEK 293F
T3 sequence (P60568 21-153): as above
Method: as §3, §4

IL-2Rα = target: T4, IL-2Rα (Homo sapiens, UniProt P01589); test: Bio-layer interferometry binding to immobilized IL-2Rα
T4 construct: the extracellular domains of the hIL-2Rα (residues 1-214) and hIL-2Rβ (residues 1-214) receptor subunits; hexahistidine (C); made in house; host or cells: HEK 293F
T4 sequence (P01589 22-235): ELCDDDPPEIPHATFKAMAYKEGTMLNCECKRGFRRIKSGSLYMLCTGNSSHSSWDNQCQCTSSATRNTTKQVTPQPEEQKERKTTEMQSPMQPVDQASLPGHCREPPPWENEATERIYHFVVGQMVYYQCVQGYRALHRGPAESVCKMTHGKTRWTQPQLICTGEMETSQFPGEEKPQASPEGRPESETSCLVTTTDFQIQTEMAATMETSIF
Method: as §3, §6, §5

Substance | STAT5 activation of TReg cells compared to CD8^+ and CD4^+ effector T cells [1] | STAT5 activation on IL-2Rα^− YT-1 cells (IL-2Rα^− YT-1 cells) | selective activation of IL-2Rα^+ TReg-like cells over IL-2Rα^− TEff-like cells (bias) (IL-2Rα^+ YT-1 cells) | STAT5 activation on IL-2Rα^+ YT-1 cells (IL-2Rα^+ YT-1 cells) | expansion of FOXP3+ cells compared to untreated cells [2] | binding to IL-2Rβ compared to free IL-2 (IL-2Rβ) | stimulation time of maximum pSTAT5 activation [3] | activation (pSTAT5) of CD4^+ T cells ([3]; various doses, 20, 40, 60, or 120 minutes) | binding affinity for hIL-2 relative to F5111 Ab (human IL-2 (hIL-2)) | binding affinity for hIL-2 relative to F5111 Ab (immobilized hIL-2) | binding to IL-2Rα compared to free IL-2 (IL-2Rα)
F5111 IC LN35: immunocytokine: hIL-2 fused to N-terminus of F5111 antibody light chain by 35-amino acid (Gly4Ser)7 linker | significantly more potent activation | immeasurable | greater bias than F5111 IC LN15 and the hIL-2/F5111 complex | sub-nanomolar concentrations | expanded FOXP3+ cells | significant reduction in the binding affinity | 60 minutes | dose-dependent manner | – | – | –
F5111 IC LN25: immunocytokine: hIL-2 fused to N-terminus of F5111 antibody light chain by 25-amino acid (Gly4Ser)5 linker | – | immeasurable | greater bias than F5111 IC LN15 and the hIL-2/F5111 complex | sub-nanomolar concentrations | – | significant reduction in the binding affinity | – | – | – | – | –
F5111 IC LN15: immunocytokine: hIL-2 fused to N-terminus of F5111 antibody light chain by 15-amino acid (Gly4Ser)3 linker | – | dramatically reduced | – | only mildly impaired | – | significantly impaired binding | – | – | significant reduction in binding affinity | significant reduction in binding affinity | equal potency to the free IL-2 cytokine
